Measured values published in ChEMBL document CHEMBL1781981, “Identification of a novel series of 3-piperidinyl-5-sulfonylindazoles as potent 5-HT6 ligands” (Bioorg Med Chem Lett, 2009).

These compounds were tested against 5-hydroxytryptamine receptor 6 (Homo sapiens, UniProt P50406) (assay: Antagonist activity at human 5HT6 receptor expressed in HeLa cells assessed as inhibition of 5-HT-induced cAMP accumulation).
Assay type: functional, cell-based

5-hydroxytryptamine receptor 6, sequence (P50406 whole entry): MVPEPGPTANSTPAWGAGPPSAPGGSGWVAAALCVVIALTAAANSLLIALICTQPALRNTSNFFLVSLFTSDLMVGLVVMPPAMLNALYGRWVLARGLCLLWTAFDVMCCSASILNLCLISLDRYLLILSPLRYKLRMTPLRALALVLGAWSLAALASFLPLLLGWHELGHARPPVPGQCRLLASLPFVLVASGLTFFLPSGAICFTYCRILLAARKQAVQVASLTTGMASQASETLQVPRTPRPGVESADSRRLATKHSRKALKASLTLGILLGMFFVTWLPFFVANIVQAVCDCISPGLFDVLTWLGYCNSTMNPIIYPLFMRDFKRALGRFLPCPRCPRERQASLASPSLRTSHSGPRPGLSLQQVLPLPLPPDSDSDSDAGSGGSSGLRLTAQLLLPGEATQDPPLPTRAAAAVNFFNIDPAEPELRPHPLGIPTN

Point of comparison: CN1CCC(c2n[nH]c3ccc(S(=O)(=O)c4ccc5ccccc5c4)cc23)CC1, IC50 102 nM. Against it:
- CN1CCC(c2n[nH]c3ccc(S(=O)(=O)c4cccc(Cl)c4)cc23)CC1 — 7.4-fold higher, 754 nM
- CC(C)c1ccc(S(=O)(=O)c2ccc3[nH]nc(C4CCN(C)CC4)c3c2)cc1 — within 1.5-fold, 108 nM
- CN1CCC(c2n[nH]c3ccc(S(=O)(=O)c4cccc5ccccc45)cc23)CC1 — 2.5-fold higher, 251 nM

Point of comparison: CC(C)c1ccc(S(=O)(=O)c2ccc3[nH]nc(C4CCN(C)CC4)c3c2)cc1, Imax 100%. Against it:
- CN1CCC(c2n[nH]c3ccc(S(=O)(=O)c4cccc(Cl)c4)cc23)CC1 — lower, 95%
- CN1CCC(c2n[nH]c3ccc(S(=O)(=O)c4ccc5ccccc5c4)cc23)CC1 — the same, 100%
- CN1CCC(c2n[nH]c3ccc(S(=O)(=O)c4cccc5ccccc45)cc23)CC1 — the same, 100%
